Measured values from patent US7192932B1, “Use of immunomodulating agents” (Lauras AS, priority 1997, dated 2007).

Assays:
[1] = system: peripheral blood CD3+ T cells; test: TCR/CD3 (anti-CD3) stimulated T cell proliferation, [3H]-thymidine incorporation; type: cell-based, human; settings: T cells from normal blood donors, FIG. 3A
Protocol: (§1) Human peripheral blood CD3+ T cells were purified by negative selection from 50 ml of heparin-treated blood from normal healthy donors (Ullevaal University Hospital Blood Center, Oslo. Norway) or patients. Briefly, peripheral blood mononuclear cells were isolated by density gradient (Lymphoprep, NycoMed, Oslo, Norway) centrifugation followed by negative selection using monodisperse magnetic beads directly coated with antibodies to CD14 and CD19 and rat anti-mouse IgG beads coated with antibodies to CD56 and a magnet. Magnetic beads were all from Dynal (Oslo, Norway, cat. no. 111.12, 111.04, and 110.11. respectively) whereas anti-CD56 antibody was from Pharmingen (San Diego, Calif., cat. no. 31660.d). All steps were performed at 4° C.
as §1, with “Peripheral blood” for “Human peripheral blood”, “Center, Oslo,” for “Center, Oslo.”, “selection using,” for “selection using”, “and 110.11,” for “and 110.11.”, “Calif., eat.” for “Calif., cat.”
Proliferation assays were performed by incubation of 0.75×10^6 CM+ T cells/ml in a 100 μl volume in that-bottom 96-well microtiter plates. Activation was achieved by subsequent addition of monodisperse magnetic beads coated with sheep anti-mouse IgG (Dynal. cat. no. 110.02) at a cell:bead ratio of 1:1 followed by addition of antiCD3 (clone SpvT3b) at a final dilution of 1:125,000 for the experiments shown. The optimal concentration of antibody was titrated carefully in the initial setup and parallel experiments at several different dilutions of antibody was always performed. Proliferation was analyzed by incubating, cells for 72 hours during which [^3H]thymidine was included for the last 16 hours. Cells were washed and harvested onto filters using a Scatron harvester (Suffolk, UK) and subsequently analyzed by β-scintillation counting. cAMP analogs, when used, were added 30 min prior to activation by addition of […] antibodies. 8-CPT-cAMP was from Sigorna (St. Louis, Mo.) and Sp- and Rp-8-Br-cAMPS were from BioLog Life Science Company (Bremen, Germany) and were all dissolved to concentrations of 4 to 10 mM in PBS and concentrations calculated using the extinction coefficients given by the manufacturer.

PBMC = settings: cited from earlier work
[2] = system: peripheral blood CD3+ T cells; test: TCR/CD3 stimulated proliferation of liposome-transfected CD3+ T cells treated with 8-CPT-cAMP; type: cell-based, human; settings: for Effect of peptide on cAMP dependent inhibition of T cell proliferation: increasing concentrations (25 to 100 μM), 8-CPT-cAMP 6.25 μM, FIG. 9
Protocol: FIG. 8. Reversal of cAMP-mediated inhibition of TUR/CD3 stimulated T cell proliferation by the use of ribozyme to the RIα subunit of protein kinase A type I. TCR/CD3 stimulated proliferation of peripheral blood CD3+ T cells from normal healthy blood donor following treatment with liposomes alone (mock) or with liposomes and RIα ribozyme (RIα rbz, 10 μM) in the absence (solid bars) and presence (open bars) of 8-CPT-cAMP (12,5 μM).
FIG. 9. Reversal of cAMP-mediated inhibition of TCR/CD3 stimulated T cell proliferation by the use of competitor peptide to compete the TCR/CD3 associated anchoring of RIα subunit of protein kinase A type I in T cells. TCR/CD3 stimulated proliferation of peripheral blood CD3+ T cells from normal healthy blood donor following treatment with liposomes alone (mock) or with increasing concentrations (25 to 100 μM) of a competitor peptide (Ht-31) that competes anchoring, to PKA type II or a control peptide (Ht31-P).
FIG. 10. TCR/CD3 stimulated proliferation of peripheral blood CD3+ T cells in the presence of increasing, concentrations of 8-CPT-cAMP. Normalized levels of proliferation of T cells mock transfected with liposomes only (solid circles, continuous line) or incubated with liposomes and Ht31 peptide (35 μM) to compete anchoring of protein kinase A type I (open circles, dotted line) was assessed as [^3H]-thymidine incorporation after 48 h during which [^3H]-thymidine was added for the last 18 h. Note: right shift of the IC50 (arrow) from 1,8 to 4,8 μM in the presence of […].
When transfected as synthetic RNA ribozyme or as a synthetic RNA ribozyme stabilized by incorporation of 2-deoxycytosine and 2-deoxy-uracil analogs into peripheral blood CD3+ T cells, the ribozyme reduced levels of RIα protein to approximately 20% of control levels by removing the RIα mRNA. By this strategy, the majority of protein kinase A type 1 was removed from the T cells. We then assessed the immune responsiveness of CD3+ T cells transfected with ribozyme compared to control (mock) transfected T cells measured as T cell proliferation after activation of T cells by stimulation of the T cell receptor/CD3 complex (TCR/CD3). In order to simulate a T cell dysfunction as that of HIV infection, with elevated levels of cAMP and increased activation of protein kinase A type 1, we treated normal T cells with low dose (12.5 around IC50) of the cAMP analog 8-(4-chlorophenyl)-thio-cAMPS (8-CPT-cAMP). […] For in vivo use pretreatment of ribozymes to allow cellular uptake or introduction into cells as minigenes will be necessary.
We incubated blood CD3+ T cells with increasing concentrations of Ht31 (SEQ. ID. NO 2) peptide. In order to facilitate uptake, cells were treated with liposomes in the presence or absence of-peptide. The optimal concentrations of DOTAP liposomes and anti-CD3 antibody were titrated carefully in order to maintain the membrane stability and normal TCR/CD3-dependent activation of the T cells. Cells were incubated for 20 hours with DOTAP/peptide and incubations continued in the absence (solid bars) or presence of 8-CPT-cAMP (6.25 μM, hatched bars) and activated to proliferation by stimulation of TCR/CD3 T cell immune responsiveness was assessed as [3H]thymidine incorporation.
Next, the effect of the competitor peptide (Ht-31, 35 μM) on T cell proliferation was examined in the presence of increasing concentrations of 8-CPT-cAMP and compared to mock transfected cells treated with the same concentrations of 8-CPT-cAMP (FIG. 10). As shown previously for normal peripheral blood T cells. […] Compared to the left-shifted curves observed with T cells from HIV-infected patients or patients with CIV due to elevated levels of endogenous cAMP activating PKA type 1, the right-shift observed here would be expected to normalize the situation in patients.

PKAII isozymes = settings: cited from earlier work
PKAI isozymes = settings: cited from earlier work
[3] = target: RIα subunit of cAMP-dependent protein kinase A type I (human, UniProt P10644 1-381); test: cell-based or functional assay
RIα subunit of cAMP-dependent protein kinase A type I, sequence (P10644 whole entry): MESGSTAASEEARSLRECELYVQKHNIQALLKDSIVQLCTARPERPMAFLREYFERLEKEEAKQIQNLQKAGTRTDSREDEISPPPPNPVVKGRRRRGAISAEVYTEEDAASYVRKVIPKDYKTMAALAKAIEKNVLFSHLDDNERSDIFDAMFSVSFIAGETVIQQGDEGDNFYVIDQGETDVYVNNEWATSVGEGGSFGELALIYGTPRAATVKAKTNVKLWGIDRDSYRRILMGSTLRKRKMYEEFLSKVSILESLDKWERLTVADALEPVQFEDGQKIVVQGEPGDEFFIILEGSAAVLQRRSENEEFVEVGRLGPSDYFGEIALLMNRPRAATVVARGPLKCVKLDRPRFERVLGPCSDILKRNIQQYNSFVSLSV

## Nc1ncnc2c1nc(Br)n2[C@@H]1O[C@@H]2COP(O)(=S)O[C@@H]2C1O (some centres unmarked) [Sp-8-Br-cAMPS, Sp-8-Bromo-cAMP-phosphorothioate, reference compound]
[1]
  Effect of cAMP agonist on TCR/CD3-stimulated proliferation: inhibited

## C[C@H]1O[C@@H](n2cnc3c(N)ncnc32)C[C@@H]1O [ddAdo, 2′,5′ dideoxyadenosine]
PBMC; PBMC
  Effect on cell proliferation: increased the cell proliferation
  Effect on cellular cAMP levels: reduced cellular cAMP levels
PBMC; higher concentrations suppressive or without further effect
  Effective concentrations: ~6 ng/mL

## H2N-Asp-Leu-Ile-Glu-Glu-Ala-Ala-Ser-Arg-Ile-Val-Asp-Ala-Val-Ile-Glu-Gln-Val-Lys-Ala-Ala-Gly-Ala-Tyr-COOH (H-DLIEEAASRIVDAVIEQVKAAGAY-OH) [Ht31]
[2]; 35 μM peptide, FIG. 10
  Effect of peptide on 8-CPT-cAMP inhibition curve: right-shifted inhibition curve
[2]
  Effect of peptide on cAMP dependent inhibition of T cell proliferation: reduced sensitivity to cAMP
[2]; listed as Ht-31
  Effect of peptide on cAMP dependent inhibition of T cell proliferation: reversed the cAMP dependent inhibition

## Nc1ncnc2c1ncn2[C@@H]1O[C@@H]2CO[P@@](O)(=S)O[C@H]2[C@H]1O [Rp-cAMPS, Rp-cAMP-phosphorothioate]
PKAII isozymes
  Mode of action on PKAII isozymes: partial agonist
PKAI isozymes
  Mode of action on PKAI isozymes: full antagonist

## H-DLIEEAASRIVDAVIEQVKAAGAY-OH [Ht31 competitor peptide (amino acids 493-515 of the A-kinase anchoring protein (AKAP) Ht31)]
[3]
  IC50 of 8-CPT-cAMP for inhibition of TCR/CD3 stimulated T cell proliferation with Ht-31 (35 µM); mock transfected cells had an IC50 around 1.8 µM: 4.8 µM
  TCR/CD3 stimulated proliferation of CD3+ T cells ([3H]thymidine incorporation) in the presence of 8-CPT-cAMP (6.25 µM), peptide delivered with DOTAP liposomes: 3 fold
